# Laboratory results published in PubChem BioAssay AID652053 (Broad Institute, 2013).
# Values joined by “and” are separate entries in the source; they are usually repeats but may differ in a detail not shown here. Identical values can stand only once.
# Tested on: Huh7 psiCHECK-miR122 Renilla luciferase reporter, 48 h
# Assay: miR-122 inhibitors in Huh7 reporter cells, dose response, cell-based, Huh7 psiCHECK-miR122, Renilla luciferase, cherry-pick (AID 652053)
row,SMILES,AC40
1,CCOc1ccccc1N1CCN(C(=O)c2cccc(-c3ccc(O)cc3)c2)CC1,0.659 µM
2,C[C@@H]1CN([C@@H](C)CO)C(=O)c2cccc(N(C)C)c2O[C@@H]1CN(C)Cc1ccc(C(=O)Nc2ccccc2N)cc1,3.25 µM
3,C[C@@H]1CN([C@H](C)CO)C(=O)Cc2cc(NC(=O)Nc3ccccc3)ccc2O[C@@H]1CN(C)C(=O)Nc1cccc2ccccc12,0.756 µM
4,CSc1cccc(NS(=O)(=O)c2cc(Br)cnc2N)c1,2.5 µM
5,COc1ccc(-c2cc(C)no2)cc1S(=O)(=O)NCC(C)c1ccccc1 (centres undefined),2.74 µM
6,CC(=Nc1ccccc1)C1=C(O)C(Cc2cccc(F)c2)NC1=O (centres undefined),3.86 µM
7,Cc1cc(C)c(S(=O)(=O)N2CCN=C2c2ccccc2)cc1C,10.3 µM
8,CCOc1cc(C)c(S(=O)(=O)Nc2ccc(Cl)cn2)cc1C,4.04 µM
9,CC(=O)c1c(C)[nH]c(C(=O)N(CCc2ccccc2)Cc2ccccc2)c1C,30.8 µM
10,CCc1c(C(=O)NCc2ccccc2Cl)[nH]c(C)c1C(C)=O,1.38 µM
11,Cc1ccc(-c2nn3c(C)nnc3c3ccccc23)cc1S(=O)(=O)NCCN1CCOCC1,3.24 µM
12,CC(C)C(=O)Nc1cc(S(=O)(=O)Nc2cccc(Cl)c2)ccc1Cl,1.52 µM
13,COc1ccc(N2CCN(C(=O)c3csc4ccccc34)CC2)cc1,15.9 µM
14,Cc1ccc(S(=O)(=O)NCc2ccco2)c(C)c1C,1.79 µM
15,Nc1c(S(=O)(=O)c2cc(Cl)ccc2Cl)c2nc3ccccc3nc2n1CCN1CCOCC1,6.22 µM
16,CN1CC(c2ccc(C#N)cc2)C2(COc3ccccc3C2=O)C12C(=O)Nc1ccccc12 (centres undefined),3.69 µM
17,CC(=O)N1CCSc2ccc(S(=O)(=O)Nc3ccc(C)cc3)cc21,4.2 µM
18,CC(C)CNS(=O)(=O)c1ccc(CCC(=O)NCCC2=CCCCC2)cc1,23 µM
19,COc1cc(S(=O)(=O)NC2CCCC2)c(OC)cc1C,3.17 µM
20,Cc1ccc(C)c(S(=O)(=O)Nc2ccc(C(=O)N3CCOCC3)cc2)c1,7.88 µM
21,CCCC#Cc1cnc2c(c1)C(=O)N([C@H](C)CO)C[C@H](C)[C@H](CN(C)Cc1ccccc1F)O2,13.1 µM
22,CCNS(=O)(=O)c1ccc2c3c(cccc13)C(=O)N2,11.6 µM
23,O=S(=O)(Nc1ccc(C(O)(C(F)(F)F)C(F)(F)F)cc1)c1cccc2cccnc12,9.64 µM
24,COc1ccc(C)cc1NS(=O)(=O)c1ccc2c(c1)N(C)CCO2,1.54 µM
25,COC(=O)c1cc(S(=O)(=O)Nc2cc(OC)cc(OC)c2)cn1C,2.37 µM

row,SMILES,AC40
1,CCn1nccc1C(=O)Nc1ccc(S(=O)(=O)NC23CC4CC(CC(C4)C2)C3)cc1,2.24 µM
2,O=C1c2ccccc2C2=Nc3ccccc3SC(c3cccc(F)c3)C12 (centres undefined),7.63 µM
3,CN1C(=O)c2cccc3c(S(=O)(=O)NCCc4ccccc4)ccc1c23,0.281 µM
4,CCc1ccc(NC(=O)Cc2cn(C)c3ccccc23)cc1,28.8 µM
5,CC(=O)Nc1ccc(NS(=O)(=O)c2ccc3ccccc3c2)cc1,14.3 µM
6,Cc1cc(C)c(C)c(S(=O)(=O)Nc2ccc(O)cc2)c1C,6.69 µM
7,CCCNC(=O)C[C@H]1CC[C@H]2[C@H](COc3ccc(NC(=O)c4ccc5c(c4)OCO5)cc3C(=O)N2C)O1,14.2 µM
8,CCN1C(=O)c2cccc3c(S(=O)(=O)N(C(=O)c4cccnc4)c4ccc(OC)cc4)ccc1c23,1.21 µM
9,COc1cccc(-c2ccc3c(c2)[C@H]2[C@H](CCN2S(=O)(=O)c2ccccc2C)[C@@H](CO)N3)c1,14.3 µM
10,COc1ccc(S(=O)(=O)Nc2ccc(F)cc2)cc1N(C)S(=O)(=O)c1ccc(Cl)cc1,4.94 µM
11,Cc1sc2ncn(CC(=O)N(CC(=O)NC3CCCC3)Cc3cccs3)c(=O)c2c1C,20 µM
12,Cc1ccc(S(=O)(=O)Nc2ccc3c(c2)CC(=O)N([C@H](C)CO)C[C@H](C)[C@H](CN(C)Cc2ccc(C(=O)Nc4ccccc4N)cc2)O3)cc1,6.79 µM
13,Cc1cc(S(=O)(=O)NCC2CC2)c(Cl)cc1Cl,2.7 µM
14,Cc1cc(C)cc(NS(=O)(=O)c2ccc(NC(=S)NC(=O)c3cccs3)cc2)c1,< 0.26 µM
15,CC(C)NC(=O)Nc1ccc2c(c1)CC(=O)N([C@H](C)CO)C[C@H](C)[C@H](CN(C)Cc1ccc(C(=O)Nc3ccccc3N)cc1)O2,14.2 µM
16,Cc1cc(C)c(C)c(S(=O)(=O)NC2CCCCC2)c1C,0.607 µM
17,CC(=O)Nc1ccc(S(=O)(=O)Nc2cccc(-c3csc(C)n3)c2)cc1,8.21 µM
18,COc1ccc(C)cc1S(=O)(=O)NC1CCCCC1,1.31 µM
19,Cc1ccc(CN2CCSc3ccc(C(=O)NCc4ccco4)cc32)cc1,11.3 µM
20,Cc1ccccc1CC1(C)C(=O)Nc2ccc(S(=O)(=O)NC3CCCCC3)cc21 (centres undefined),2.69 µM
21,CC(C)CNS(=O)(=O)c1ccc(OCC(=O)Nc2ccc3c(c2)OCO3)c(Cl)c1,8.36 µM
22,C[C@H](CO)N1C[C@H](C)[C@@H](CN(C)Cc2ccc(Cl)c(Cl)c2)Oc2c(NS(=O)(=O)c3cccs3)cccc2C1=O,2.7 µM
23,COc1ccc(S(=O)(=O)Nc2ccc(S(=O)(=O)N3CCOCC3)cc2)cc1,14.7 µM
24,C/C(=N\Nc1ccccn1)c1ccc(S(=O)(=O)NCc2ccco2)cc1,6.97 µM
25,COc1cc(C)c(C(C)C)cc1S(=O)(=O)n1cnc(C)c1,2.65 µM

row,SMILES,AC40
1,CCN(Cc1ccccc1)C(=O)c1[nH]c2ccc(OC)cc2c1C,12 µM
2,C[C@H](CO)N1C[C@H](C)[C@@H](CN(C)Cc2ccc3c(c2)OCO3)Oc2c(NC(=O)C3CC3)cccc2C1=O,11.7 µM and 3.61 µM
3,O=C(NCc1cccc(Cl)c1)c1ccc(S(=O)(=O)Nc2cccc(C(F)(F)F)c2)cc1,22.5 µM
4,Cc1ccc(S(=O)(=O)Nc2ccc3c4c(cccc24)CC3)c(C)c1,6.8 µM
5,OC(c1ccc(Cl)c(Cl)c1)c1ncc(-c2ccccc2F)[nH]1 (centres undefined),3.49 µM
6,C[C@H](CO)N1C[C@H](C)[C@@H](CN(C)Cc2ccc3c(c2)OCO3)Oc2c(NC(=O)NC3CCCCC3)cccc2C1=O,2.53 µM
7,Cc1noc(C)c1NC(=O)Nc1cccc2c1O[C@@H](CN(C)Cc1ccc(Cl)c(Cl)c1)[C@@H](C)CN([C@H](C)CO)C2=O,0.826 µM
8,C[C@H](CO)N1C[C@H](C)[C@H](CN(C)CC2CCCCC2)Oc2c(NC(=O)c3cnccn3)cccc2C1=O,1.12 µM
9,C[C@H]1CN([C@@H](C)CO)C(=O)Cc2cc(NC(=O)Nc3ccc(C(F)(F)F)cc3)ccc2O[C@H]1CN(C)S(=O)(=O)c1ccc(F)cc1,14 µM
10,CCc1ccc(-c2cc(C)no2)cc1S(=O)(=O)Nc1ccc(C)cn1,2.33 µM
11,Cc1ccccc1C(=O)Oc1ccc(Br)cc1C(=S)N1CCCC1,13.3 µM
12,Cc1cc(-c2ccc(C(C)C)c(S(=O)(=O)NCc3ccco3)c2)on1,1.22 µM
13,O=S(=O)(Nc1ccc(S(=O)(=O)N2CCCC2)cc1)c1ccccc1Br,4.34 µM
14,C[C@H](CO)N1C[C@H](C)[C@H](CN(C)Cc2ccc(C(=O)Nc3ccccc3N)cc2)Oc2ccc(NC(=O)NC3CCCCC3)cc2CC1=O,16.2 µM
15,C=CCNC(=O)c1ccccc1NC(=O)c1ccc(Cl)c(S(=O)(=O)Nc2cc(C)ccc2C)c1,1.38 µM
16,CC1CCCCN1C(=O)c1cc2nc(-c3ccccc3)cc(-c3ccccc3)n2n1 (centres undefined),2.46 µM
17,C[C@H](CO)N1C[C@H](C)[C@@H](CN(C)Cc2ccccc2)Oc2c(NS(=O)(=O)c3ccccc3)cccc2C1=O,3.64 µM
18,CCOc1cc(C)c(C(C)C)cc1S(=O)(=O)NCc1ccccn1,0.392 µM
19,CCOc1ccccc1N(CC(=O)Nc1cccnc1)S(=O)(=O)c1ccc(C)cc1,8.03 µM
20,C[C@H]1CN([C@@H](C)CO)C(=O)c2cccc(NC(=O)C3CCOCC3)c2O[C@@H]1CN(C)Cc1ccc2c(c1)OCO2,18.2 µM
21,COc1ccccc1NS(=O)(=O)c1cc(NC(=O)CCC(=O)c2cccs2)ccc1Cl,21.7 µM
22,CCOC(=O)c1c(C)[nH]c(C)c1S(=O)(=O)NCCc1ccco1,2.96 µM
23,CC(C)n1nc(C(=O)Nc2cccc(S(=O)(=O)NCc3ccco3)c2)c2ccccc2c1=O,2.61 µM
24,C[C@@H]1CN([C@H](C)CO)C(=O)c2cc(N(C)C)ccc2O[C@H]1CN(C)Cc1ccc(C(=O)Nc2ccccc2N)cc1,1.96 µM
25,O=C(NCc1ccccn1)c1cccc(NS(=O)(=O)c2cccc(F)c2)c1,5.83 µM

row,SMILES,AC40
1,CC(C)(C)c1ccc(S(=O)(=O)Nc2ccc(C(O)(C(F)(F)F)C(F)(F)F)cc2)cc1,5.39 µM
2,COc1ccc(NC(=O)CCC(=O)c2cccs2)cc1S(=O)(=O)Nc1ccc(Cl)cc1,0.884 µM
3,C[C@H](CO)N1C[C@H](C)[C@@H](CN(C)C(=O)Nc2cccc3ccccc23)Oc2ccc(NC(=O)Nc3ccc(C(F)(F)F)cc3)cc2CC1=O,7.77 µM
4,Cc1cc(S(=O)(=O)Nc2cc(C)c(O)c(C)c2)c(C)s1,24.9 µM
5,Cc1ccc(S(=O)(=O)Nc2ccc3c(c2)CC(=O)N([C@@H](C)CO)C[C@@H](C)[C@H](CN(C)Cc2ccc(C(=O)Nc4ccccc4N)cc2)O3)cc1,32.4 µM
6,CC(C)c1ccc(S(=O)(=O)Nc2ccc3c(c2)OCO3)cc1,2.71 µM
7,Cc1ccc(S(=O)(=O)Nc2cccc(-c3cn4ccsc4n3)c2)cc1,1.81 µM
8,O=C(Cc1ccccc1)N1C[C@H]2[C@@H](c3ccccc31)[C@@H](CO)N2C(=O)C1CCCCC1,6.07 µM
9,COc1ccc(OC)c(S(=O)(=O)Nc2ccc(C(C)=O)cc2)c1,1.58 µM
10,CCCNC(=O)C[C@H]1CC[C@H]2[C@H](COc3ccc(NC(=O)Cc4cccs4)cc3C(=O)N2C)O1,2.21 µM
11,O=S1(=O)c2ccc(Br)cc2N2CCC[C@H]2CN1Cc1ccccc1,34.9 µM
12,COc1ccccc1NS(=O)(=O)c1cc(NC(=S)NCCN2CCOCC2)ccc1N1CCOCC1,1.71 µM
13,COc1cc(NS(=O)(=O)c2ccc(C)c(C)c2)c(OC)cc1Cl,15.2 µM
14,COc1ccc(C)cc1S(=O)(=O)NC1CCCCC1C (centres undefined),3.25 µM
15,CC(C)c1ccc(NC(=S)NCc2cccs2)cc1,2.8 µM
16,Cn1c(=O)n(C)c2cc(NS(=O)(=O)c3ccc(C(C)(C)C)cc3)ccc21,8.31 µM
17,CCOc1ccccc1N1CCN(C(=O)c2cc3ccccc3cc2OC)CC1,4.78 µM
18,OC(c1ccc(Cl)c(F)c1)c1ncc(-c2cccc(F)c2)[nH]1 (centres undefined),9.13 µM
19,Cc1cc(C)c(S(=O)(=O)NCc2ccccn2)cc1C,9.76 µM
20,COc1ccc(NS(=O)(=O)c2cc(C)ccc2NC(=O)c2cc(C)oc2C)cc1,3.23 µM
21,CCN(CC)c1ccc(N)cc1S(=O)(=O)Nc1ccc(OC)cc1,27.3 µM
22,COc1ccc(S(=O)(=O)N2CC[C@@H]3[C@H](CO)N(C)c4ccc(-c5ccc(F)cc5)cc4[C@@H]32)cc1,7.49 µM
23,Cc1ccc(C(=O)NCc2ccco2)cc1S(=O)(=O)Nc1cccc(C)c1C,6.29 µM
24,Cc1ccc(C(C)C)cc1S(=O)(=O)Nc1cccnc1,2.62 µM
